molecular target: Acetylcholinesterase (Homo sapiens, UniProt P22303); assay: Inhibition of AChE (unknown origin)
Sequence (P22303 whole entry): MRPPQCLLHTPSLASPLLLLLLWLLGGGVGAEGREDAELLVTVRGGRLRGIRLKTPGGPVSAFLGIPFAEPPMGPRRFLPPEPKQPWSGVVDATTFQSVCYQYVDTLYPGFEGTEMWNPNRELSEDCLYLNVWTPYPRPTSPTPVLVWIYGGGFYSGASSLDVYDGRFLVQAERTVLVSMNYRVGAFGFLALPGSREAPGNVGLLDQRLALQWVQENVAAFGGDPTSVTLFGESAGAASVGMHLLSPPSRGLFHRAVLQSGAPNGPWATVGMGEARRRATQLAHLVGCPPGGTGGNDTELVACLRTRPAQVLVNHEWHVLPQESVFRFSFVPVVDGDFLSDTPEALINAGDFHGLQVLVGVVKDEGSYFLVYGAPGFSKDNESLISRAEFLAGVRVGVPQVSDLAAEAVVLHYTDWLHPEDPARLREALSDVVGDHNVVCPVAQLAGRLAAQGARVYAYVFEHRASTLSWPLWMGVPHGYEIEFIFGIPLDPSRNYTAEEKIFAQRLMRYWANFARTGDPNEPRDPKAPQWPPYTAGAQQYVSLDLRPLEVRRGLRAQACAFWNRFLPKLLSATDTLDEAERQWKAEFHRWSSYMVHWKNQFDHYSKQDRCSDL

Compound | IC50
CO[C@@H]1C=C[C@@]23c4cc5c(cc4CN(CCc4ccccc4)[C@@H]2C(=O)N(C)[C@H]3C1)OCO5 | > 200 µM
CN[C@H]1C[C@H](OC)C=C[C@@]12C(=O)N(CCC(C)C)Cc1cc3c(cc12)OCO3 | > 200 µM
COc1cc2c(cc1O)[C@@H]1[C@H](O)[C@@H](OC)C=C3CCN(C2)[C@H]31 | > 200 µM
CO[C@@H]1C=C[C@@]23c4cc5c(cc4C[N@@+]([O-])(CCc4ccccc4)[C@@H]2C(=O)N(C)[C@H]3C1)OCO5 | > 200 µM
CO[C@@H]1C=C[C@@]2(CN(CCC(C)C)Cc3cc4c(cc32)OCO4)[C@@H](N(C)C=O)C1 | > 200 µM
CO[C@@H]1C=C[C@@]23c4cc5c(cc4C[N@@+]([O-])(CCc4ccc(O)cc4)[C@@H]2C(=O)N(C)[C@H]3C1)OCO5 | > 200 µM
CO[C@@H]1C=C[C@@]23c4cc5c(cc4CN(CCC(C)C)[C@@H]2C(=O)N(C)[C@H]3C1)OCO5 | > 200 µM
COc1ccc2c3c1O[C@H]1C[C@@H](O)CC[C@@]31CC[N@@+](C)([O-])C2 | > 200 µM
COc1cc2c(cc1O)[C@@H]1[C@H](O)[C@@H](OC)C=C3CC[N@@+]([O-])(C2)[C@H]31 | > 200 µM
CO[C@@H]1C=C[C@@]23c4cc5c(cc4CN(CCc4ccc(O)cc4)[C@@H]2C(=O)N(C)[C@H]3C1)OCO5 | > 200 µM
COc1ccc2c3c1O[C@H]1C[C@H](O)CC[C@@]31CCN(C)C2 | 57.9 µM
CO[C@@H]1C=C[C@@]23c4cc5c(cc4CN(CCC(C)C)[C@]2(C(C)=O)C(=O)N(C)[C@H]3C1)OCO5 | > 200 µM
CO[C@@H]1C=C[C@@]23c4cc5c(cc4C(=O)N(C)[C@@H]2C(=O)N(C)[C@H]3C1)OCO5 | > 200 µM
CO[C@@H]1C=C[C@@]23c4cc5c(cc4C(=O)N(CCC(C)C)[C@@H]2CN(C)[C@@H]3C1)OCO5 | > 200 µM
COc1cc2c3c(c1)c1cc(=O)c(OC)cc-1cn3CC2 | 35.6 µM
CO[C@@H]1C=C[C@@]23c4cc5c(cc4C[N@@+]([O-])(CCO)[C@@H]2C(=O)N(C)[C@H]3C1)OCO5 | 126 µM
COc1cc2c(cc1OC)[C@@H]1[C@H](O)[C@@H](OC)C=C3CC[N@+]([O-])(C2)[C@H]31 | > 200 µM
CO[C@@H]1C=C[C@@]23c4cc5c(cc4CN(C)[C@@H]2C(=O)N(C)[C@H]3C1)OCO5 | > 200 µM
COc1ccc2c3c1O[C@H]1C[C@@H](O)C=C[C@@]31[C@H](O)C[N@@+](C)([O-])C2 | > 200 µM
CO[C@@H]1C=C[C@@]23c4cc5c(cc4C(=O)N(CCC(C)C)[C@@H]2C(=O)N(C)[C@H]3C1)OCO5 | > 200 µM
COc1ccc2c3c1O[C@H]1C[C@@H](O)CC[C@@]31CCN(C)C2 | 20.1 µM
COc1cc2c(cc1OC)[C@@H]1[C@H](O)[C@@H](OC)C=C3CCN(C2)[C@H]31 [GALANTHINE] | 6.1 µM
O[C@H]1[C@H]2c3cc4c(cc3CN3CCC(=C[C@@H]1O)[C@H]23)OCO4 [LYCORINE] | > 200 µM
COc1cc2c(cc1O)[C@@H]1[C@H](O)[C@@H](O)C=C3CCN(C2)[C@H]31 [PSEUDOLYCORINE] | 188 µM
